Calls of active or inactive are those of the source. How the calls were made is not given here.
System: CCRIS mutagenicity, Ames/micronucleus/aberration tests
Test: CCRIS mutagenicity studies
[1] = Test System: AMES SALMONELLA TYPHIMURIUM, Strain/Indicator: TA98, Metabolic Activation: HAMSTER, LIVER, S-9, AROCLOR 1254 (10%), Method: PREINCUBATION
[2] = Test System: AMES SALMONELLA TYPHIMURIUM, Strain/Indicator: TA98, Metabolic Activation: NONE, Method: PREINCUBATION
[3] = Test System: AMES SALMONELLA TYPHIMURIUM, Strain/Indicator: TA98, Metabolic Activation: RAT, LIVER, S-9, AROCLOR 1254 (10%), Method: PREINCUBATION
[4] = Test System: AMES SALMONELLA TYPHIMURIUM, Strain/Indicator: TA100, Metabolic Activation: HAMSTER, LIVER, S-9, AROCLOR 1254 (10%), Method: PREINCUBATION
[5] = Test System: AMES SALMONELLA TYPHIMURIUM, Strain/Indicator: TA100, Metabolic Activation: NONE, Method: PREINCUBATION
[6] = Test System: AMES SALMONELLA TYPHIMURIUM, Strain/Indicator: TA100, Metabolic Activation: RAT, LIVER, S-9, AROCLOR 1254 (10%), Method: PREINCUBATION
[7] = Test System: AMES SALMONELLA TYPHIMURIUM, Strain/Indicator: TA1535, Metabolic Activation: HAMSTER, LIVER, S-9, AROCLOR 1254 (10%), Method: PREINCUBATION
[8] = Test System: AMES SALMONELLA TYPHIMURIUM, Strain/Indicator: TA1535, Metabolic Activation: NONE, Method: PREINCUBATION
[9] = Test System: AMES SALMONELLA TYPHIMURIUM, Strain/Indicator: TA1535, Metabolic Activation: RAT, LIVER, S-9, AROCLOR 1254 (10%), Method: PREINCUBATION
[10] = Test System: AMES SALMONELLA TYPHIMURIUM, Strain/Indicator: TA1537, Metabolic Activation: HAMSTER, LIVER, S-9, AROCLOR 1254 (10%), Method: PREINCUBATION
[11] = Test System: AMES SALMONELLA TYPHIMURIUM, Strain/Indicator: TA1537, Metabolic Activation: NONE, Method: PREINCUBATION
[12] = Test System: AMES SALMONELLA TYPHIMURIUM, Strain/Indicator: TA1537, Metabolic Activation: RAT, LIVER, S-9, AROCLOR 1254 (10%), Method: PREINCUBATION

Structure (SMILES) | mutagenic call [1] | mutagenic call [2] | mutagenic call [3] | mutagenic call [4] | mutagenic call [5] | mutagenic call [6] | mutagenic call [7] | mutagenic call [8] | mutagenic call [9] | mutagenic call [10] | mutagenic call [11] | mutagenic call [12] | other results
CN(C)CCN(C)C | inactive; negative | inactive; negative | inactive; negative | inactive; negative | inactive; negative | inactive; negative | inactive; negative | inactive; negative | inactive; negative | inactive; negative | inactive; negative | inactive; negative | –
CCCC(=O)OCc1ccccc1[N+](=O)[O-] | – | inactive; negative | – | – | inactive; negative | – | – | – | – | – | – | – | mutagenic call (Test System: AMES SALMONELLA TYPHIMURIUM, Strain/Indicator: TA100, Metabolic Activation: RAT, LIVER, S-9, AROCLOR 1254, Method: PREINCUBATION): inactive; negative
CCCCC/C=C\C/C=C\CCCCCCCC(=O)O | inactive; negative | inactive; negative | inactive; negative | inactive; negative | inactive; negative | inactive; negative | inactive; negative | inactive; negative | inactive; negative | inactive; negative | inactive; negative | inactive; negative | mutagenic call (Test System: AMES SALMONELLA TYPHIMURIUM, Strain/Indicator: TA98, Metabolic Activation: HAMSTER, LIVER, S-9, AROCLOR 1254, Method: STANDARD PLATE): inactive; negative; mutagenic call (Test System: AMES SALMONELLA TYPHIMURIUM, Strain/Indicator: TA98, Metabolic Activation: NONE, Method: STANDARD PLATE): inactive; negative; mutagenic call (Test System: AMES SALMONELLA TYPHIMURIUM, Strain/Indicator: TA98, Metabolic Activation: RAT, LIVER, S-9, AROCLOR 1254, Method: STANDARD PLATE): inactive; negative; mutagenic call (Test System: AMES SALMONELLA TYPHIMURIUM, Strain/Indicator: TA100, Metabolic Activation: HAMSTER, LIVER, S-9, AROCLOR 1254, Method: STANDARD PLATE): inactive; negative; mutagenic call (Test System: AMES SALMONELLA TYPHIMURIUM, Strain/Indicator: TA100, Metabolic Activation: NONE, Method: STANDARD PLATE): inactive; negative; mutagenic call (Test System: AMES SALMONELLA TYPHIMURIUM, Strain/Indicator: TA100, Metabolic Activation: RAT, LIVER, S-9, AROCLOR 1254, Method: STANDARD PLATE): inactive; negative; mutagenic call (Test System: AMES SALMONELLA TYPHIMURIUM, Strain/Indicator: TA1535, Metabolic Activation: HAMSTER, LIVER, S-9, AROCLOR 1254, Method: STANDARD PLATE): inactive; negative; mutagenic call (Test System: AMES SALMONELLA TYPHIMURIUM, Strain/Indicator: TA1535, Metabolic Activation: NONE, Method: STANDARD PLATE): inactive; negative; mutagenic call (Test System: AMES SALMONELLA TYPHIMURIUM, Strain/Indicator: TA1535, Metabolic Activation: RAT, LIVER, S-9, AROCLOR 1254, Method: STANDARD PLATE): inactive; negative; mutagenic call (Test System: AMES SALMONELLA TYPHIMURIUM, Strain/Indicator: TA1537, Metabolic Activation: HAMSTER, LIVER, S-9, AROCLOR 1254, Method: STANDARD PLATE): inactive; negative; mutagenic call (Test System: AMES SALMONELLA TYPHIMURIUM, Strain/Indicator: TA1537, Metabolic Activation: NONE, Method: STANDARD PLATE): inactive; negative; mutagenic call (Test System: AMES SALMONELLA TYPHIMURIUM, Strain/Indicator: TA1537, Metabolic Activation: RAT, LIVER, S-9, AROCLOR 1254, Method: STANDARD PLATE): inactive; negative; mutagenic call (Test System: AMES SALMONELLA TYPHIMURIUM, Strain/Indicator: TA1538, Metabolic Activation: HAMSTER, LIVER, S-9, AROCLOR 1254, Method: STANDARD PLATE): inactive; negative; mutagenic call (Test System: AMES SALMONELLA TYPHIMURIUM, Strain/Indicator: TA1538, Metabolic Activation: NONE, Method: STANDARD PLATE): inactive; negative; mutagenic call (Test System: AMES SALMONELLA TYPHIMURIUM, Strain/Indicator: TA1538, Metabolic Activation: RAT, LIVER, S-9, AROCLOR 1254, Method: STANDARD PLATE): inactive; negative; mutagenic call (Test System: MOUSE LYMPHOMA, Strain/Indicator: L5178Y (TK+/TK-), Metabolic Activation: NONE, Method: SUSPENSION/PLATE): inactive; negative. reevaluation of results: negative; mutagenic call (Test System: MOUSE LYMPHOMA, Strain/Indicator: L5178Y (TK+/TK-), Metabolic Activation: RAT, LIVER, S-9, AROCLOR 1254, Method: SUSPENSION/PLATE): inactive; negative. reevaluation of results: negative
Cc1nc(-c2ccc([N+](=O)[O-])o2)cs1 | – | – | – | – | – | – | – | – | – | – | – | – | mutagenic call (Test System: AMES SALMONELLA TYPHIMURIUM, Strain/Indicator: TA100, Metabolic Activation: RAT, LIVER, S-9, KC500 OR PHENOBARBITAL, Method: LIQUID SUSPENSION): active; positive
Fc1cc2ccccc2c2ncccc12 | – | – | – | – | – | – | – | – | – | – | – | – | mutagenic call (Test System: AMES SALMONELLA TYPHIMURIUM, Strain/Indicator: TA100, Metabolic Activation: RAT, LIVER, S-9, PHENOBARBITAL AND 5,6-BENZOFLAVONE, Method: PREINCUBATION): active; positive
Cc1cc(C)cc(N)c1 | inactive; negative | inactive; negative | inactive; negative | – | inactive; negative | inactive; negative | inactive; negative | inactive; negative | inactive; negative | inactive; negative | – | – | mutagenic call (Test System: AMES SALMONELLA TYPHIMURIUM, Strain/Indicator: TA97, Metabolic Activation: HAMSTER, LIVER, S-9, AROCLOR 1254 (10%), Method: PREINCUBATION): inactive; negative; mutagenic call (Test System: AMES SALMONELLA TYPHIMURIUM, Strain/Indicator: TA97, Metabolic Activation: NONE, Method: PREINCUBATION): inactive; negative; mutagenic call (Test System: AMES SALMONELLA TYPHIMURIUM, Strain/Indicator: TA97, Metabolic Activation: RAT, LIVER, S-9, AROCLOR 1254 (10%), Method: PREINCUBATION): inactive; negative
NC(=O)OC[C@@H]1[C@H](NC(=O)/C(=N\OCC(=O)O)c2csc(N)n2)C(=O)N1S(=O)(=O)O | – | – | – | – | – | – | – | – | – | – | – | – | mutagenic call (Test System: AMES SALMONELLA TYPHIMURIUM, Strain/Indicator: TA98, Metabolic Activation: NONE): inactive; negative; mutagenic call (Test System: AMES SALMONELLA TYPHIMURIUM, Strain/Indicator: TA98, Metabolic Activation: S-9): inactive; negative; mutagenic call (Test System: AMES SALMONELLA TYPHIMURIUM, Strain/Indicator: TA100, Metabolic Activation: NONE): inactive; negative; mutagenic call (Test System: AMES SALMONELLA TYPHIMURIUM, Strain/Indicator: TA100, Metabolic Activation: S-9): inactive; negative; mutagenic call (Test System: AMES SALMONELLA TYPHIMURIUM, Strain/Indicator: TA1537, Metabolic Activation: NONE): inactive; negative; mutagenic call (Test System: AMES SALMONELLA TYPHIMURIUM, Strain/Indicator: TA1537, Metabolic Activation: S-9): inactive; negative; mutagenic call (Test System: E. COLI, Strain/Indicator: WP2 (HCR), Metabolic Activation: NONE): inactive; negative; mutagenic call (Test System: E. COLI, Strain/Indicator: WP2 (HCR), Metabolic Activation: S-9): inactive; negative
C[CH2][Pb]([Cl])([CH2]C)[CH2]C | inactive; negative | inactive; negative | inactive; negative | inactive; negative | inactive; negative | inactive; negative | inactive; negative | inactive; negative | inactive; negative | inactive; negative | inactive; negative | inactive; negative | –

Source: PubChem BioAssay AID1259407 (Chemical Carcinogenesis Research Information System (CCRIS), 2018)
